Source: paper PMC10439028, “SGLT5 is the renal transporter for 1,5-anhydroglucitol, a major player in two rare forms of neutropenia” (Cellular and Molecular Life Sciences: CMLS, 2023)

Molecular target: T1, mouse SGLT5 (Mus musculus, UniProt Q5SWY8)
T1 construct: expressed in transfected cells; host or cells: HEK293T
T1 sequence (Q5SWY8 1-596): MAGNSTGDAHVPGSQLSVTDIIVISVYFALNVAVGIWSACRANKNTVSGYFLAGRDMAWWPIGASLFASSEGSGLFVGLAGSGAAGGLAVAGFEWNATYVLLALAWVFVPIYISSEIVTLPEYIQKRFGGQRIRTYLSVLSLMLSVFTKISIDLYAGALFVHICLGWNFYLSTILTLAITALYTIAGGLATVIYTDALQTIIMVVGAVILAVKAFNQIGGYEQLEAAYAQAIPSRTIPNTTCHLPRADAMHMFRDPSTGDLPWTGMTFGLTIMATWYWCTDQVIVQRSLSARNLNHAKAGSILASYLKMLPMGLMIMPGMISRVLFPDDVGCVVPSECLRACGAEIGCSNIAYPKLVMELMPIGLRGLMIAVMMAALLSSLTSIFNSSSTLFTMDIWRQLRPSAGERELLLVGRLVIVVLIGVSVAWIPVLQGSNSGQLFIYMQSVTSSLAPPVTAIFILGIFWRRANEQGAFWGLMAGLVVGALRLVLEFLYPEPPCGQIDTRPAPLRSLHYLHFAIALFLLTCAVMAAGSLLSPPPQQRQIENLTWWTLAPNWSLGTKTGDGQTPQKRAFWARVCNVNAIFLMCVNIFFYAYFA
Assay: Radioactive uptake assay (saturation kinetics) in HEK293T cells expressing mouse SGLT5
Type: cell-based
Method: For a typical transporter experiment we proceeded as follows. […] To minimize cell loss during the various washing steps in the radioactive uptake experiments, the wells where the cells were seeded were previously coated with poly- D-lysine, which improved their adhesion to the plastic surface of the wells. For this, each well of the 24-well plates was treated with 200 µl of a 0.01% poly-L-lysine solution for 10 min, washed 3 times with 1 ml of sterilized water and left to dry for 2 h. Only then could the 24-well plates be seeded with the appropriate cell lines and cultured overnight at 37 °C in 5% CO2.
On day two, the radioactive uptake assay could be performed. […]
Once the uptake medium was added to the cells, the plates were incubated at 37 °C in 5% CO2 during the required time. […] In each experiment, the transport activities were calculated after subtracting a “blank” value, corresponding to the radioactivity in the appropriate control cells (HEK293T cells that were stably or transiently transfected with one of the parent plasmids pEF6/MycHisA, pEF6HisB, pUB82 or pUB83 with no inserted cDNA) that were analyzed in parallel. […]
Supplementary Fig. 4: Transport activities for 1,5-anhydroglucitol and mannose of recombinant mouse SGLT4 and SGLT5 isoforms measured in HEK293T cells. […]

## OC[C@H]1OC[C@H](O)[C@@H](O)[C@@H]1O [1,5-AG, 1,5-anhydroglucitol]
30 min, Supplementary Fig. 4
  mSGLT5 Vmax: 16 pmol/min/100 000 cells
Mouse SGLT5 versus mouse SGLT4
  higher affinity of mouse SGLT5 than mouse SGLT4 for 1,5-AG: over tenfold
